Measurements reported in ChEMBL document CHEMBL1129680, “Discovery of novel, non-peptide HIV-1 protease inhibitors by pharmacophore searching” (J Med Chem, 1996).
The source made the active and inactive calls. The calls are words filed in the database; no cut-off is given here.

Tests used:
[1] = target: Human immunodeficiency virus type 1 protease (Human immunodeficiency virus 1) (UniProt Q72874); assay: Evaluated for the inhibition of HIV-1 Protease.
[2] = target: Human immunodeficiency virus type 1 reverse transcriptase (Human immunodeficiency virus 1) (UniProt Q72547); assay: Inhibitory concentration against Reverse Transcriptase
Homo sapiens [3] = species: Homo sapiens; assay: Cytotoxicitic activity […] in human PBLs cells; type: functional, cell-based
[4] = target: Human immunodeficiency virus type 1 integrase (Human immunodeficiency virus 1) (UniProt Q7ZJM1); assay: Inhibitory concentration against HIV-1 Integrase 3' chain processing
Human immunodeficiency virus type 1 integrase (Human immunodeficiency virus 1), sequence (Q7ZJM1 as listed by the source): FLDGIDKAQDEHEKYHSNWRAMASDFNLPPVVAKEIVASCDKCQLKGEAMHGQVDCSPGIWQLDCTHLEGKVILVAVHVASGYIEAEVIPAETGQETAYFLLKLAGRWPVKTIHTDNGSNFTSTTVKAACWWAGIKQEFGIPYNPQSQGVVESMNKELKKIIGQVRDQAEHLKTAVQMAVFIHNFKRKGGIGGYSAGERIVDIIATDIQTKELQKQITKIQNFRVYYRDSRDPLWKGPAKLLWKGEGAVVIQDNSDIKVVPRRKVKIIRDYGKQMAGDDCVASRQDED

[5] = Inhibition of compound against p7 nucleocapsid fluorescence intensity of the zinc finger ); NI = No inhibition; type: functional
[6] = target: Human immunodeficiency virus type 1 integrase (Human immunodeficiency virus 1) (UniProt Q7ZJM1); assay: Inhibitory concentration against HIV-1 Integrase 3' chain transfer
Homo sapiens [7] = species: Homo sapiens; assay: Antiviral activity against HIV virus induced infection in human PBLs cells; type: functional, cell-based
[8] = target: Human immunodeficiency virus type 1 protease (Human immunodeficiency virus 1) (UniProt Q72874)
[9] = target: Human immunodeficiency virus type 1 protease (Human immunodeficiency virus 1) (UniProt Q72874); remark: listed apart in the source

Compound	ID50 [1]	also measured
O=c1c(C(c2ccc(C(c3c(O)oc4ccccc4c3=O)c3c(O)oc4ccccc4c3=O)cc2)c2c(O)oc3ccccc3c2=O)c(O)oc2ccccc12	1.7 µM	ID50 [2]: 7.1 µM; IC50 (Homo sapiens [3]): 54.8 µM; ID50 [4]: 1.5 µM; RFU [5]: inactive; ID50 [6]: 0.7 µM; EC50 (Homo sapiens [7]): 11.5 µM; ID50 [8]: 1.7 µM; ID50 [9]: inactive
O=c1oc2cccc(O)c2c(O)c1Cc1ccccc1	6 µM	–
CC(=O)NC(Cc1ccsc1)(C(=O)O)C(=O)O	23 µM	–
O=c1c(C(c2ccc3c(c2)OCO3)c2c(O)oc3ccccc3c2=O)c(O)oc2ccccc12	30 µM	–
Cc1cn([C@H]2C[C@H](N=[N+]=[N-])[C@@H](COP(=O)(O)OP(=O)(O)OP(=O)(O)O)O2)c(=O)[nH]c1=O	54 µM	–
CC1(C)CC[C@]2(C(=O)O)CC[C@]3(C)C(=CC[C@@H]4[C@@]5(C)C[C@H](O)[C@H](O)[C@@](C)(C(=O)O)[C@H]5CC[C@]43C)[C@@H]2C1	35 µM	–
CC(C)CC(NC(=O)OCc1ccccc1)(C(=O)O)C(=O)O	17 µM	–
C[C@]12CCC(=O)C=C1CC[C@@H]1[C@@H]2[C@@H](O)C[C@@]2(C)[C@H]1CC[C@]2(O)C(=O)COC(=O)CCC(=O)O	27 µM	–
CC(=O)OC1CCC2(C)C(C)C(C)CCC2(O)C1O (configuration not stated)	16 µM	–
CCCC(=O)C1=C(O)C(Cc2c(O)c(C)c(O)c(C(=O)CCC)c2O)=C(O)C(C)(C)C1=O	26 µM	–
O=c1oc2ccccc2c(O)c1-c1ccccc1	42 µM	–
CCCCCCc1cc2c(cc1O)OC(=O)C(C(c1ccccc1)c1c(O)oc3cc(O)c(CCCCCC)cc3c1=O)C2O (configuration not stated)	0.32 µM	–

Second part, led by results:

ID50 [1]	Compound	also measured
0.75 µM	O=C1C(O)=C(C(C2=C(O)C(=O)c3ccccc3C2=O)c2ccc(C(C3=C(O)C(=O)c4ccccc4C3=O)C3=C(O)C(=O)c4ccccc4C3=O)cc2)C(=O)c2ccccc21	–
13 µM	O=c1oc2c(-c3ccccc3)cccc2c(O)c1-c1ccccc1	–
31 µM	CC(C)c1cccc(C(C)C)c1NC(=O)C(=O)CC(=O)CC(c1ccccc1)c1c(O)oc2ccccc2c1=O (configuration not stated)	–
2 µM	O=C1C2=C(C(=O)c3ccccc31)C(O)(S(=O)(=O)O)C(O)(S(=O)(=O)O)C1N=CC=CC21 (configuration not stated)	–
32 µM	O=C(Oc1ccccc1)N(CCO)C(c1ccccc1)C(O)c1ccccc1 (configuration not stated)	–
21 µM	O=C1Oc2ccccc2C(O)C1Sc1c(O)oc2ccccc2c1=O (configuration not stated)	–
24 µM	O=C1C(O)=C(C(C2=C(O)C(=O)c3ccccc3C2=O)c2ccc(Cl)cc2Cl)C(=O)c2ccccc21	–
